System: K-562 leukemia growth, % test/control
Test: Anticancer human tumor K-562 cell line growth inhibition;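 note: spheroids exposed to compounds for 7 days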;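 for viability, T/C: 100% = DMSO vehicle wells and lower values mean fewer viable cells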
Conditions: spheroids with HUVEC and MSC; for IC50: curve of first compound; for viability, T/C: stronger effect = lower value
Summary of the method: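 Drug combinations with the LSD1 inhibitor iadademstat tested on tumor cells co-cultured as spheroids with endothelial cells and mesenchymal stem cells. Concentrations descended in half-log increments from clinical Cmax or 10 microM.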

[1] = second compound 0.1 µM, first compound 0.00949 µM
[2] = second compound 0.1 µM, first compound 0.03 µM
[3] = second compound 0.1 µM, first compound 0.0949 µM
[4] = second compound 0.1 µM, first compound 0.3 µM
[5] = second compound 0.316 µM, first compound 0.00949 µM
[6] = second compound 0.316 µM, first compound 0.03 µM
[7] = second compound 0.316 µM, first compound 0.0949 µM
[8] = second compound 0.316 µM, first compound 0.3 µM
[9] = second compound 1 µM, first compound 0.00949 µM
[10] = second compound 1 µM, first compound 0.03 µM
[11] = second compound 1 µM, first compound 0.0949 µM
[12] = second compound 1 µM, first compound 0.3 µM
[13] = second compound 3.16 µM, first compound 0.00949 µM
[14] = second compound 3.16 µM, first compound 0.03 µM
[15] = second compound 3.16 µM, first compound 0.0949 µM
[16] = second compound 3.16 µM, first compound 0.3 µM
[17] = second compound 10 µM, first compound 0.00949 µM
[18] = second compound 10 µM, first compound 0.03 µM
[19] = second compound 10 µM, first compound 0.0949 µM
[20] = second compound 10 µM, first compound 0.3 µM

Structure (SMILES): CC1(C)CCC(CN2CCN(c3ccc(C(=O)NS(=O)(=O)c4ccc(NCC5CCOCC5)c([N+](=O)[O-])c4)c(Oc4cnc5[nH]ccc5c4)c3)CC2)=C(c2ccc(Cl)cc2)C1 + NC1CCC(NC2CC2c2ccccc2)CC1
- IC50 (second compound 0.1 µM): 6.56 µM
- IC50 (second compound 0.316 µM): 6.65 µM
- IC50 (second compound 1 µM): 6.57 µM
- IC50 (second compound 3.16 µM): 6.94 µM
- IC50 (second compound 10 µM): 6.52 µM
- viability, T/C (second compound 0.1 µM, first compound 0.0316 µM): 99.8%
- viability, T/C (second compound 0.1 µM, first compound 0.1 µM): 102%
- viability, T/C (second compound 0.1 µM, first compound 0.316 µM): 101%
- viability, T/C (second compound 0.1 µM, first compound 1 µM): 104%
- viability, T/C (second compound 0.1 µM, first compound 3.16 µM): 109%
- viability, T/C (second compound 0.1 µM, first compound 10 µM): 19.1%
- viability, T/C (second compound 0.316 µM, first compound 0.0316 µM): 102%
- viability, T/C (second compound 0.316 µM, first compound 0.1 µM): 104%
- viability, T/C (second compound 0.316 µM, first compound 0.316 µM): 104%
- viability, T/C (second compound 0.316 µM, first compound 1 µM): 101%
- viability, T/C (second compound 0.316 µM, first compound 3.16 µM): 110%
- viability, T/C (second compound 0.316 µM, first compound 10 µM): 20%
- viability, T/C (second compound 1 µM, first compound 0.0316 µM): 104%
- viability, T/C (second compound 1 µM, first compound 0.1 µM): 104%
- viability, T/C (second compound 1 µM, first compound 0.316 µM): 107%
- viability, T/C (second compound 1 µM, first compound 1 µM): 108%
- viability, T/C (second compound 1 µM, first compound 3.16 µM): 110%
- viability, T/C (second compound 1 µM, first compound 10 µM): 17.6%
- viability, T/C (second compound 3.16 µM, first compound 0.0316 µM): 105%
- viability, T/C (second compound 3.16 µM, first compound 0.1 µM): 103%
- viability, T/C (second compound 3.16 µM, first compound 0.316 µM): 104%
- viability, T/C (second compound 3.16 µM, first compound 1 µM): 108%
- viability, T/C (second compound 3.16 µM, first compound 3.16 µM): 106%
- viability, T/C (second compound 3.16 µM, first compound 10 µM): 24.3%
- viability, T/C (second compound 10 µM, first compound 0.0316 µM): 97.6%
- viability, T/C (second compound 10 µM, first compound 0.1 µM): 99.6%
- viability, T/C (second compound 10 µM, first compound 0.316 µM): 99.8%
- viability, T/C (second compound 10 µM, first compound 1 µM): 101%
- viability, T/C (second compound 10 µM, first compound 3.16 µM): 101%
- viability, T/C (second compound 10 µM, first compound 10 µM): 20.5%

Structure (SMILES): CCN(c1cc(-c2ccc(CN3CCOCC3)cc2)cc(C(=O)NCc2c(C)cc(C)[nH]c2=O)c1C)C1CCOCC1 + NC1CCC(NC2CC2c2ccccc2)CC1
- IC50 (second compound 0.1 µM): > 3 µM
- IC50 (second compound 0.316 µM): > 3 µM
- IC50 (second compound 1 µM): > 3 µM
- IC50 (second compound 3.16 µM): > 3 µM
- IC50 (second compound 10 µM): 2.22 µM
- viability, T/C [1]: 112%
- viability, T/C [2]: 107%
- viability, T/C [3]: 106%
- viability, T/C [4]: 106%
- viability, T/C (second compound 0.1 µM, first compound 0.949 µM): 106%
- viability, T/C (second compound 0.1 µM, first compound 3 µM): 98.8%
- viability, T/C [5]: 112%
- viability, T/C [6]: 109%
- viability, T/C [7]: 107%
- viability, T/C [8]: 108%
- viability, T/C (second compound 0.316 µM, first compound 0.949 µM): 105%
- viability, T/C (second compound 0.316 µM, first compound 3 µM): 101%
- viability, T/C [9]: 113%
- viability, T/C [10]: 112%
- viability, T/C [11]: 106%
- viability, T/C [12]: 109%
- viability, T/C (second compound 1 µM, first compound 0.949 µM): 105%
- viability, T/C (second compound 1 µM, first compound 3 µM): 99.5%
- viability, T/C [13]: 113%
- viability, T/C [14]: 110%
- viability, T/C [15]: 107%
- viability, T/C [16]: 106%
- viability, T/C (second compound 3.16 µM, first compound 0.949 µM): 104%
- viability, T/C (second compound 3.16 µM, first compound 3 µM): 95%
- viability, T/C [17]: 103%
- viability, T/C [18]: 101%
- viability, T/C [19]: 93.7%
- viability, T/C [20]: 86%
- viability, T/C (second compound 10 µM, first compound 0.949 µM): 69.4%
- viability, T/C (second compound 10 µM, first compound 3 µM): 42.9%

Structure (SMILES): Nc1ncn(C2CC(O)C(CO)S2)c(=O)n1 (stereo not given) + NC1CCC(NC2CC2c2ccccc2)CC1
- IC50 (second compound 0.1 µM): 0.175 µM
- IC50 (second compound 0.316 µM): 0.171 µM
- IC50 (second compound 1 µM): 0.148 µM
- IC50 (second compound 3.16 µM): 0.136 µM
- IC50 (second compound 10 µM): 0.06 µM
- viability, T/C (second compound 0.1 µM, first compound 0.000949 µM): 102%
- viability, T/C (second compound 0.1 µM, first compound 0.003 µM): 106%
- viability, T/C [1]: 107%
- viability, T/C [2]: 95.6%
- viability, T/C [3]: 69%
- viability, T/C [4]: 33.5%
- viability, T/C (second compound 0.316 µM, first compound 0.000949 µM): 106%
- viability, T/C (second compound 0.316 µM, first compound 0.003 µM): 108%
- viability, T/C [5]: 108%
- viability, T/C [6]: 95.7%
- viability, T/C [7]: 68%
- viability, T/C [8]: 33%
- viability, T/C (second compound 1 µM, first compound 0.000949 µM): 108%
- viability, T/C (second compound 1 µM, first compound 0.003 µM): 110%
- viability, T/C [9]: 107%
- viability, T/C [10]: 94.3%
- viability, T/C [11]: 65.2%
- viability, T/C [12]: 26.6%
- viability, T/C (second compound 3.16 µM, first compound 0.000949 µM): 108%
- viability, T/C (second compound 3.16 µM, first compound 0.003 µM): 111%
- viability, T/C [13]: 106%
- viability, T/C [14]: 89.2%
- viability, T/C [15]: 60.3%
- viability, T/C [16]: 28.4%
- viability, T/C (second compound 10 µM, first compound 0.000949 µM): 102%
- viability, T/C (second compound 10 µM, first compound 0.003 µM): 107%
- viability, T/C [17]: 95.9%
- viability, T/C [18]: 70.7%
- viability, T/C [19]: 36.5%
- viability, T/C [20]: 18.6%

— PubChem BioAssay AID1918948 (Molecular Pharmacology Branch, DTP, NCI, 2023)
